Source: PubChem BioAssay (NCI)
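Five compound concentrations were applied to cells in 96-well plates for 48 hours; endpoints were derived by simple linear interpolation of the resulting dose-response curve. GI50 is the concentration that inhibits growth by half. The concentration for full growth arrest is given as TGI.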

Experiments:
Assay in all cases: NCI anticancer screen, dose series, 48 h
[1] = test system: MCF7 breast
[2] = test system: BT-549 breast
[3] = test system: KM12 colon
[4] = test system: RXF 393 renal
[5] = test system: T-47D breast
[6] = test system: SW-620 colon
[7] = test system: SK-MEL-5 melanoma
[8] = test system: UACC-62 melanoma
[9] = test system: MDA-MB-435
[10] = test system: MDA-MB-231 breast
[11] = test system: SK-MEL-28 melanoma
[12] = test system: SK-OV-3 ovarian
[13] = test system: CAKI-1 renal
[14] = test system: SF-539 CNS
[15] = test system: HOP-62 NSCLC
[16] = test system: UO-31 renal
[17] = test system: RPMI-8226 leukemia
[18] = test system: NCI-H522 lung
[19] = test system: OVCAR-8 ovarian
[20] = test system: HL-60(TB) leukemia
[21] = test system: OVCAR-4 ovarian
[22] = test system: CCRF-CEM leukemia
[23] = test system: NCI-H23 lung
[24] = test system: DU-145 prostate
[25] = test system: HCC-2998 colon
[26] = test system: U251 CNS
[27] = test system: A549 NSCLC
[28] = test system: SN12C renal
[29] = test system: UACC-257 melanoma

SMILES: S=c1ssnc1-c1ccccn1
- GI50 [1]: 2.84 µM
- TGI [1]: > 35.9 µM
- GI50 [2]: 6.38 µM
- TGI [2]: 28.7 µM
- GI50 [3]: 3.72 µM
- TGI [3]: 15.4 µM
- GI50 [4]: 3.05 µM
- TGI [4]: 6.47 µM
- GI50 [5]: 5.59 µM
- TGI [5]: > 55.5 µM
- GI50 [6]: 2.72 µM
- TGI [6]: 14.5 µM
- GI50 [7]: 8.81 µM
- TGI [7]: > 37.6 µM
- GI50 [8]: 5.31 µM
- TGI [8]: 21.1 µM
- GI50 [9]: 3.28 µM
- TGI [9]: 16.3 µM
- GI50 [10]: 3.44 µM
- TGI [10]: 22 µM
- GI50 [11]: 2.87 µM
- TGI [11]: 13 µM
- GI50 [12]: 12.8 µM
- TGI [12]: > 86.9 µM
- GI50 [13]: 3.07 µM
- TGI [13]: 16.3 µM
- GI50 [14]: 2.52 µM
- TGI [14]: 15.1 µM
- GI50 [15]: 3.83 µM
- TGI [15]: 27.9 µM
- GI50 [16]: 3.51 µM
- TGI [16]: 22.2 µM
- GI50 [17]: 2.58 µM
- TGI [17]: 29.3 µM
- GI50 [18]: 1.84 µM
- TGI [18]: 4.12 µM
- GI50 [19]: 3.17 µM
- TGI [19]: 23 µM
- GI50 [20]: 1.37 µM
- TGI [20]: 4.65 µM
- GI50 [21]: 9.36 µM
- TGI [21]: > 100 µM
- GI50 [22]: 1.27 µM
- TGI [22]: 4.24 µM
- GI50 [23]: 3.77 µM
- TGI [23]: 18.4 µM
- GI50 [24]: 1.34 µM
- TGI [24]: 13.8 µM
- GI50 [25]: 3.4 µM
- TGI [25]: 12.7 µM
- GI50 [26]: 4.63 µM
- TGI [26]: 33.2 µM
- GI50 [27]: 8.92 µM
- TGI [27]: 37.9 µM
- GI50 [28]: 5.91 µM
- TGI [28]: 32 µM
- GI50 [29]: 3.1 µM
- TGI [29]: 8.47 µM
